For the first experiment, the target named is FXa (Homo sapiens, UniProt P00742). As to the kind of experiment: Factor Xa inhibition (FXa-IC50).
FXa, sequence (P00742 235-488 limits assumed): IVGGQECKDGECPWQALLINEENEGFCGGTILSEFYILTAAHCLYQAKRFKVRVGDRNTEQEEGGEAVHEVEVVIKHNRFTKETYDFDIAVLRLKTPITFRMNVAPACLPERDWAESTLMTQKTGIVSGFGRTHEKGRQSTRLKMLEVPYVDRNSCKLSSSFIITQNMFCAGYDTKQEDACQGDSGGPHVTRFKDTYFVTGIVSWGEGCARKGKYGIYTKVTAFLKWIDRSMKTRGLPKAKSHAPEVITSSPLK
FXa, sequence (P00742 41-179 partner limits assumed): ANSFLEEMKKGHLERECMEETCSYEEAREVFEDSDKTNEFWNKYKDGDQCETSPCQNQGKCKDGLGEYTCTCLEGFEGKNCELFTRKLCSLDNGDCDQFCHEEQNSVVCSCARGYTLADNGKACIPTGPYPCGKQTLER
Conditions: not given
Format: biochemical.
T1 sequence (P08709 61-212): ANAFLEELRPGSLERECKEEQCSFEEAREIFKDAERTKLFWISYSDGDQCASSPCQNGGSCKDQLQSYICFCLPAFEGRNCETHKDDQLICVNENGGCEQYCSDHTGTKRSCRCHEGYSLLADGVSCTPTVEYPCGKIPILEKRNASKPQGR
T1 sequence (P08709 213-466): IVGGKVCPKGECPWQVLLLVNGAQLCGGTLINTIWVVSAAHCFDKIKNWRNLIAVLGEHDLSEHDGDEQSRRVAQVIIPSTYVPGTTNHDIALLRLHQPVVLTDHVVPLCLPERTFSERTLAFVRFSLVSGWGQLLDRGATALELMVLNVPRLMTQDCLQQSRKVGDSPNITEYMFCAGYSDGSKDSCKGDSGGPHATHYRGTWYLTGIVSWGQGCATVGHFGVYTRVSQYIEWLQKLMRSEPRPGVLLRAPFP
T1 sequence (P13726 33-295, further chain): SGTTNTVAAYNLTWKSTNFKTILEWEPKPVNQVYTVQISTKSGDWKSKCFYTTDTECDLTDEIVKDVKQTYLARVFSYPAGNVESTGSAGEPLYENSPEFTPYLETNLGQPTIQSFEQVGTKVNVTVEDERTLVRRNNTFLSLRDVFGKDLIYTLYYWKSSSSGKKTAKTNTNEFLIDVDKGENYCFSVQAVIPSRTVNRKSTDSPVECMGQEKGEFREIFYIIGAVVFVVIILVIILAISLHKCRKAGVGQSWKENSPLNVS
`C#Cc1ccc(NC(=O)N2C[C@H](OC)C[C@@H]2C(=O)Nc2ccc(N3CCOCC3=O)cc2)cc1` [Compound A2, 1-[(4-ethynylphenyl)]-2-{[4-(3-oxomorpholin-4-yl)phenyl]}-(2R,4R)-4-methoxypyrrolidine-1,2-dicarboxamide] registered an IC50 of 3.1 nM.

The compound `C#Cc1ccc(NC(=O)N2C[C@H](OC)C[C@@H]2C(=O)Nc2ccc(-n3ccccc3=O)cc2)cc1` [Compound A1, 1-[(4-ethynylphenyl)]-2-{[4-(2-oxo-2H-pyridin-1-yl)phenyl]}-(2R,4R)-4-methoxypyrrolidine-1,2-dicarboxamide] yielded an IC50 of 1.3 nM.

The same experiment, now with this note: read-out: FXa-IC50.
As for `C#Cc1ccc(NC(=O)N2CC(OC)CC2C(=O)Nc2ccc(-n3ccccc3=O)c(OC)c2)cc1` [Compound A4-4, 1-[(4-ethynylphenyl)]-2-{[3-methoxy-4-(2-oxo-2H-pyridin-1-yl)phenyl]}-(2R,4R)-4-methoxypyrrolidine-1,2-dicarboxamide], the IC50 is 2.8 nM.

As to `C#CCO[C@@H]1C[C@H](C(=O)Nc2ccc(N3CCOCC3=O)cc2)N(C(=O)Nc2ccc(C#C)cc2)C1` [Compound A4-6, 1-[(4-ethynylphenyl)]-2-{[4-(3-oxomorpholin-4-yl)phenyl]}-(2R,4R)-4-propargyloxypyrrolidine-1,2-dicarboxamide], the IC50 stood at 1.3 nM.

As to `C#Cc1ccc(NC(=O)N2CC(O)CC2C(=O)Nc2ccc3c(c2)CCN3C(C)=O)cc1` [Compound A4-3, 1-[(4-ethynylphenyl)]-2-{[1-acetyl-2,3-dihydro-1H-indol-5-yl]}-(2R,4R)-4-hydroxypyrrolidine-1,2-dicarboxamide], the IC50 amounted to 2600 nM.

For `C#Cc1ccc(NC(=O)N2C[C@H](OCC(=O)OC)C[C@@H]2C(=O)Nc2ccc(N3CCOCC3=O)cc2)cc1` [Compound A4-10, 1-[(4-ethynylphenyl)]-2-{[4-(3-oxomorpholin-4-yl)phenyl]}-(2R,4R)-4-(methoxycarbonylmethoxy)pyrrolidine-1,2-dicarboxamide], the IC50 is 4.2 nM.

With `C#Cc1ccc(NC(=O)N2C[C@H](OC)C[C@@H]2C(=O)Nc2ccc(-n3nc(C)ccc3=O)cc2)cc1` [Compound A4-12, 1-[(4-ethynylphenyl)]-2-{[4-(6-methyl-3-oxo-2H-pyridazin-2-yl)phenyl]}-(2R,4R)-4-methoxypyrrolidine-1,2-dicarboxamide], the IC50 is 2100 nM.

With `C#Cc1ccc(NC(=O)N2CC(OCC=C)CC2C(=O)Nc2ccc(N3CCOCC3=O)cc2)cc1` [Compound A4-5, 1-[(4-ethynylphenyl)]-2-{[4-(3-oxomorpholin-4-yl)phenyl]}-(2R,4R)-4-allyloxypyrrolidine-1,2-dicarboxamide], the IC50 is 3.1 nM.

For `C#Cc1ccc(NC(=O)N2C[C@H](OCC(=O)O)C[C@@H]2C(=O)Nc2ccc(N3CCOCC3=O)cc2)cc1` [Compound A4-11, 1-[(4-ethynylphenyl)]-2-{[4-(3-oxomorpholin-4-yl)phenyl]}-(2R,4R)-4-(carboxymethoxy)pyrrolidine-1,2-dicarboxamide], the IC50 turned out to be 4.8 nM.

Turning to `C#Cc1ccc(NC(=O)N2CC(OCC(O)CO)CC2C(=O)Nc2ccc(N3CCOCC3=O)cc2)cc1` [Compound A4-7, 1-[(4-ethynylphenyl)]-2-{[4-(3-oxomorpholin-4-yl)phenyl]}-(2R,4R)-4-(2,3-dihydroxypropoxy)pyrrolidine-1,2-dicarboxamide], the IC50 came out at 3.1 nM.

With `C#Cc1ccc(NC(=O)N2CC(OCC)CC2C(=O)Nc2ccc(N3CCCCC3=O)cc2)cc1` [Compound A4-1, 1-[(4-ethynylphenyl)]-2-{[4-(2-oxopiperidin-1-yl)phenyl]}-(2R,4R)-4-ethoxypyrrolidine-1,2-dicarboxamide], the IC50 was determined as 3 nM.

On to `C#Cc1ccc(NC(=O)N2CC(OC)CC2C(=O)Nc2ccc(N3CC(O)CC3C(=O)OC)cc2)cc1` [Compound A4-8, 1-[(4-ethynylphenyl)]-2-{[4-(2-methoxycarbonyl-4-hydroxypyrrolidin-1-yl)phenyl]}-(2R,4R)-4-methoxypyrrolidine-1,2-dicarboxamide], for which the IC50 came out at 1100 nM.

Consider `C#Cc1ccc(NC(=O)N2C[C@H](OCCOC)C[C@@H]2C(=O)Nc2ccc(N3CCOCC3=O)cc2)cc1` [Compound A4-9, 1-[(4-ethynylphenyl)]-2-{[4-(3-oxomorpholin-4-yl)phenyl]}-(2R,4R)-4-(methoxyethoxy)pyrrolidine-1,2-dicarboxamide], for which the IC50 turned out to be 3.3 nM.

For the compound `C#Cc1ccc(NC(=O)N2CC(OCC)CC2C(=O)Nc2ccc(-n3ccccc3=O)c(F)c2)cc1` [Compound A4-2, 1-[(4-ethynylphenyl)]-2-{[3-fluoro-4-(2-oxo-2H-pyridin-1-yl)phenyl]}-(2R,4R)-4-ethoxypyrrolidine-1,2-dicarboxamide], the IC50 came out at 1.9 nM.

The next experiment addresses T1, TF/FVIIa (Homo sapiens, UniProt P08709).
T1 construct: Coagulation factor VIIa initiates the extrinsic part of the coagulation cascade
As to the kind of experiment: TF/FVIIa inhibition (TF/FVIIa-IC50). The format is biochemical.
Conditions: not given
The compound `C#Cc1ccc(NC(=O)N2C[C@H](OC)C[C@@H]2C(=O)Nc2ccc(N3CCOCC3=O)cc2)cc1` [Compound A2, 1-[(4-ethynylphenyl)]-2-{[4-(3-oxomorpholin-4-yl)phenyl]}-(2R,4R)-4-methoxypyrrolidine-1,2-dicarboxamide] gave an IC50 of 3.2 nM.

Consider `C#Cc1ccc(NC(=O)N2C[C@H](OC)C[C@@H]2C(=O)Nc2ccc(-n3ccccc3=O)cc2)cc1` [Compound A1, 1-[(4-ethynylphenyl)]-2-{[4-(2-oxo-2H-pyridin-1-yl)phenyl]}-(2R,4R)-4-methoxypyrrolidine-1,2-dicarboxamide], for which the IC50 was found to be 1.9 nM.

What is called IC50 is the concentration that inhibits the measured activity by half.

The record behind these values is US7557222B2, “1-[(4-Ethynylphenyl)]-2-[(phenyl)]-pyrrolidine-1,2-dicarboxamide derivatives as inhibitors of coagulation factors Xa and VIIa for the treatment of thrombosis” (priority 2003, dated 2009).
